In patent US7091345B2, “Amino-substituted dihydropyrimido[4,5-D]pyrimidinone derivatives” (Hoffmann-La Roche Inc., priority 2002, dated 2006):
Where two headings read alike, the source gives them in different places.

Legend:
Lck (p56^lck) = biological target: T1, Lck (p56^lck) (Homo sapiens, UniProt P06239); test: SRC-Inhibitor-Assay, time-resolved fluorescence kinase assay (Lck); assay type: biochemical; conditions: ATP 5 μM, enzyme 2.5 U/ml, pre-incubation 15 min at 15° C.
T1 construct: purchased Upstate (UBI)
T1 sequence (P06239 whole entry, species assumed): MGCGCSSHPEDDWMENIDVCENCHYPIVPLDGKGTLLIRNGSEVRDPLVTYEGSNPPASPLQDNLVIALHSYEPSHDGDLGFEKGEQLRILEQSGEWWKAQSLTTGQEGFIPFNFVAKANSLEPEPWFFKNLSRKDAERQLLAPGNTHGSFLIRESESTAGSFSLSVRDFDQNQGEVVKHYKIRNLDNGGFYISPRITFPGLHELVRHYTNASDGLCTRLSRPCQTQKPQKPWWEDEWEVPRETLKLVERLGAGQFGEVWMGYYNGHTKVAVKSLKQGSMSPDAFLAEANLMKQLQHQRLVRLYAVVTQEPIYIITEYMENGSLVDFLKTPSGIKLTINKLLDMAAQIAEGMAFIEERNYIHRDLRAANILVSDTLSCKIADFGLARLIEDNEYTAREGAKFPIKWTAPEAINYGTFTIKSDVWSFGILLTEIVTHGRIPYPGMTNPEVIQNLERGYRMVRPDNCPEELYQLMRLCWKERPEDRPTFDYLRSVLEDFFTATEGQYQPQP
Description: (§1) The activity of the compounds according to this invention as inhibitors for the src-family tyrosine kinases was shown by using the following assay.
(§2) SRC-Inhibitor-Assay Parameters:
(§3) Assay buffer: 4 mM MgCl2 • 2 mM TCEP • 50 mM HEPES • 0,1% Tween 20 • pH 7.3
(§4) Material: Eu-labelled phosphotyrosine antibody:—for Lck Cisbio Mab PT66-K, for Src EG&G Wallac PT66 Eu-W1024 (all commercially available). Peptides: Ro: NH2-A-E-E-E-I-Y-G-E-F-E-A-K-K-K-K-CONH2, and Ja133-Ro: Ja133-G-Aminocaprylic acid-A-E-E-E-I-Y-G-E-F-E-A-K-K-K-K-CONH2, wherein Ja133 is LightCycler-Red 640-N-hydroxy succinimide ester; whereby both peptides were synthesized by an optimized solid phase peptide synthesis protocol (Merrifield, Fed. Proc. Fed. Amer. Soc. Exp. Biol. 21 (1962) 412) on a Zinsser SMP350 peptide synthesizer. Shortly, the peptide was assembled on 160 mg (22.8 μmol scale) of a Rink-Linker modified polystyrene solid phase by repeatedly conjugating an twenty fold excess of amino acids each protected by temporary piperidine labile Fmoc- and permanent acid labile tert-Bu-, BOC— and Otert-Bu-groups depending on the side chain function. The substrate sequence AEEEIYGEFEAKKKK was N-terminal additionally mounted with the spacer amino acids Aminocaprylic acid and Glycin. After cleavage of the N-terminal temporary protecting group the still attached and protected peptide was labeled with a 1.5 fold amount of LightCycler-Red 640-N-hydroxy succinimide ester (purchased by Roche Diagnostics GmbH) and triethylamine. After 3 hrs. the resin was washed with Dimethylformamide and Isopropanol until the eluates of the blue resin got colourless. […] The substrate was finally isolated by a preparative reverse phase HPLC purification. The purification yielded 12.2 mg RP-HPLC single peak pure blue material (lyophilisate). The identity was proven by MALDI mass spectroscopy [2720.0]. Enzymes: Upstate Lck (p56^lck, active), Upstate Src (p60^c-src, partially purified) were purchased from UBI. Time-resolved Fluorescence Assay: Reader: Perkin Elmer, Wallac Viktor 1420-040 multilabel counter; Liquid handling system: Beckman Coulter, Biomek 2000. ATP, Tween 20, HEPES were purchased from Roche Molecular Biochemicals, MgCl2 and MnCl2 were purchased from Merck Eurolab, TCEP was purchased from Pierce, 384 Well low volume fluorescence plates was purchased from Falcon. Assay Description:
(§5) At first the enzyme is pre-incubated for 15 min. at 15° C. in aqueous solution with corresponding amounts of inhibitors according to this invention. Then the phosphorylation reaction is started by adding a reaction mixture, containing ATP, Peptide and PT66, and subsequent shaking. The proceeding of this reaction is immediately monitored using time resolved fluorescence spectroscopy in a suitable well plate reader.
(§6) The IC50-values can be obtained from the reaction rates by using a non-linear curve fit (Excelfit).

[1] = Pharmacokinetic study in mice, plasma levels after single p.o. dose; assay type: in vivo; conditions: male NMRI mice, p.o. single dose 30 mg/kg as micro-suspension, dose-normalised
Description: A preferred pharmaceutical preparation was obtained by using the following procedure: • 1. Weigh 4.0 g glass beads in custom made tube GL 25, 4 cm (the beads fill half of the tube). • 2. Add 50 mg compound, disperse with spatulum and vortex. • 3. Add 2 ml gelatin solution (weight beads: gelatin solution=2:1) and vortex. • 4. Cap and wrap in aluminium foil for light protection. • 5. Prepare a counter balance for the mill. • 6. Mill for 4 hours, 20/s in a Retsch mill (for some substances up to 24 hours at 30/s). • 7. Extract suspension from beads with two layers of filter (100 μm) on a filter holder, coupled to a recipient vial by centrifugation at 400 g for 2 min. • 8. Move extract to measuring cylinder. • 9. Repeat washing with small volumes (here 1 ml steps) until final volume is reached or extract is clear. • 10. Fill up to final volume with gelatin and homogenise.
The above described preparation yields micro-suspensions of the compounds of formula I with particle sizes between 1 and 10 μm. The suspensions are suitable for oral applications and were used in the in vivo pharmacokinetic testings described below.
To male NMRI mice of 29–35 g body weight the compounds according to this invention were given p.o. as micro-suspensions (7.5% modified gelatine and 0.22% NaCl) in doses of 30 mg/kg (Drug concentration: 3 mg/mL. Administered volume: 10 mL/kg) and as single dose administration. Study Protocol:
Animals were fasted overnight up to 4 hrs. after administration of the compound. For each single p.o. dose the mice were allocated to 3 groups with 4 animals each. Blood samples are taken from group 1 at 0.5, 3 and 24 hours, from group 2 at 1 and 6 hours, and from group 3 at 2 and 8 hours.
Blood samples of about 200 μl were obtained by retro-orbital puncture. Plasma samples were obtained from heparinized/EDTA blood by centrifugation at room temperature, and stored frozen at −20° C. until analysis.
Plasma was deproteinated and subsequently analysed for plasma levels of the compound by a compound specific HPLC-MS method. WinNonlin™ was used to calculate the pharmacokinetic parameters.

Src (p60^c-src) = biological target: T2, Src (p60^c-src) (Homo sapiens, UniProt P12931); test: SRC-Inhibitor-Assay, time-resolved fluorescence kinase assay (Src); assay type: biochemical; conditions: ATP 5 μM, enzyme 2.5 U/ml, pre-incubation 15 min at 15° C.
T2 construct: purchased Upstate (UBI)
T2 sequence (P12931 whole entry): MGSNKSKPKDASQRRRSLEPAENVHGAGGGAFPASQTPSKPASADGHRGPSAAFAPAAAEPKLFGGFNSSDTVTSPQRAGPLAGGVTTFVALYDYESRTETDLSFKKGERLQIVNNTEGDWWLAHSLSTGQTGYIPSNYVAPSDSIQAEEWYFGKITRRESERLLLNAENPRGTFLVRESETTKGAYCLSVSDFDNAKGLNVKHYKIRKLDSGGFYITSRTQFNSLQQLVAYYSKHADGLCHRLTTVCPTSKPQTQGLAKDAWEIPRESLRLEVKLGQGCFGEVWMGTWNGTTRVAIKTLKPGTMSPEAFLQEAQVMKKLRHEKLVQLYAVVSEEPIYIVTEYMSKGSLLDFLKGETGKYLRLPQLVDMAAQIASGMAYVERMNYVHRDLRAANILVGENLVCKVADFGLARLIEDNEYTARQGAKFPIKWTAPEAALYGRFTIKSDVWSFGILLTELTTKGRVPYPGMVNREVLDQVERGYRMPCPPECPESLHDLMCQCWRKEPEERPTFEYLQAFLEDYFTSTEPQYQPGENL
Description: as §1, §2, §3, §4, §5, §6

In the case of CN1C(=O)N(c2ccccc2Br)Cc2cnc(Nc3ccc4c(c3)OCC(CO)O4)nc21 (stereo not drawn) [Example 1, 3-(2-bromo-phenyl)-7-(2-hydroxymethyl-2,3-dihydro-benzo[1,4]dioxin-6-ylamino)-1-methyl-3,4-dihydro-1H-pyrimido[4,5-d]pyrimidin-2-one], the IC50 (Lck (p56^lck); read-out: IC 50 (lck)) is reported as 6.3 nM, the “AUC = area under the curve from T = 0 to T = 24 hrs” value (shortened to “AUC = area under the curve”) [1] is reported as 379 (h * ng/ml))/(mg/kg) and the IC50 (Src (p60^c-src); read-out: IC 50 (src)) is reported as 7.5 nM. For the same molecule, the melting point was 156 to 158 °C.

For CN1C(=O)N(c2ccccc2Br)Cc2cnc(Nc3ccc4c(c3)OC3(CCNCC3)O4)nc21 [Example 7, 3-(2-bromo-phenyl)-3,4-dihydro-7-(spiro[1,3-benzodioxolo-2,4′-piperidine]-5-yl)amino-1-methyl-pyrimido[4,5-d]pyrimidin-2(1H)-one], the IC50 (Lck (p56^lck); IC 50 (lck)) was 2.4 nM, the “AUC = area under the curve” value [1] was 813 (h * ng/ml))/(mg/kg) and the IC50 (Src (p60^c-src); IC 50 (src)) was 2 nM.

For CN1C(=O)CSc2cc(Nc3ncc4c(n3)N(C)C(=O)N(c3c(F)cccc3Br)C4)ccc21 [Example 13-12, 3-(2-bromo-6-fluoro-phenyl)-1-methyl-7-(4-methyl-3-oxo-3,4-dihydro-2H-benzo[1,4]thiazin-7-ylamino)-3,4-dihydro-1H-pyrimido[4,5-d]pyrimidin-2-one], the IC50 (Lck (p56^lck); read-out: IC 50 (lck)) was 14 nM, the “AUC = area under the curve” value [1] was 592 (h * ng/ml))/(mg/kg) and the IC50 (Src (p60^c-src); read-out: IC 50 (src)) was 4.2 nM. The melting point was 145 to 149 °C.

For CN1C(=O)N(c2ccccc2Br)Cc2cnc(Nc3ccc4c(c3)OCC(CN3CCCC3)O4)nc21 (stereo not drawn) [Example 13-21, 3-(2-bromo-phenyl)-1-methyl-7-(2-pyrrolidin-1-ylmethyl-2,3-dihydro-benzo[1,4]dioxin-6-ylamino)-3,4-dihydro-1H-pyrimido[4,5-d]pyrimidin-2-one], the “AUC = area under the curve” value [1] was 120 (h * ng/ml))/(mg/kg) and the melting point was 201 to 203 °C.

With CN1CCS(=O)(=O)c2cc(Nc3ncc4c(n3)N(C)C(=O)N(c3ccccc3Br)C4)ccc21 [Example 13-26, 3-(2-bromo-phenyl)-1-methyl-7-(4-methyl-1,1-dioxo-1,2,3,4-tetrahydro-1lambda*6*-benzo[1,4]thiazin-7-ylamino)-3,4-dihydro-1H-pyrimido[4,5-d]pyrimidin-2-one] the melting point was 250 to 251 °C.

With CN1C(=O)N(c2c(F)cccc2Br)Cc2cnc(Nc3ccc4c(c3)OC3(CCNCC3)O4)nc21 [Example 13-46, 3-(2-bromo-6-fluoro-phenyl)-3,4-dihydro-7-(spiro[1,3-benzodioxolo-2,4′-piperidine]-5-yl)amino-1-methyl-pyrimido[4,5-d]pyrimidin-2(1H)-one] the IC50 (Lck (p56^lck); IC 50 (lck)) was 2.6 nM, the “AUC = area under the curve” value [1] was 234 (h * ng/ml))/(mg/kg) and the IC50 (Src (p60^c-src); IC 50 (src)) was 2.3 nM. For the same molecule, the melting point was 146 to 153 °C.
